For assay [1], the target named is T1, human SGLT1 (Homo sapiens, UniProt P13866).
T1 construct: expressed in transfected cells
T1 sequence (P13866 1-664): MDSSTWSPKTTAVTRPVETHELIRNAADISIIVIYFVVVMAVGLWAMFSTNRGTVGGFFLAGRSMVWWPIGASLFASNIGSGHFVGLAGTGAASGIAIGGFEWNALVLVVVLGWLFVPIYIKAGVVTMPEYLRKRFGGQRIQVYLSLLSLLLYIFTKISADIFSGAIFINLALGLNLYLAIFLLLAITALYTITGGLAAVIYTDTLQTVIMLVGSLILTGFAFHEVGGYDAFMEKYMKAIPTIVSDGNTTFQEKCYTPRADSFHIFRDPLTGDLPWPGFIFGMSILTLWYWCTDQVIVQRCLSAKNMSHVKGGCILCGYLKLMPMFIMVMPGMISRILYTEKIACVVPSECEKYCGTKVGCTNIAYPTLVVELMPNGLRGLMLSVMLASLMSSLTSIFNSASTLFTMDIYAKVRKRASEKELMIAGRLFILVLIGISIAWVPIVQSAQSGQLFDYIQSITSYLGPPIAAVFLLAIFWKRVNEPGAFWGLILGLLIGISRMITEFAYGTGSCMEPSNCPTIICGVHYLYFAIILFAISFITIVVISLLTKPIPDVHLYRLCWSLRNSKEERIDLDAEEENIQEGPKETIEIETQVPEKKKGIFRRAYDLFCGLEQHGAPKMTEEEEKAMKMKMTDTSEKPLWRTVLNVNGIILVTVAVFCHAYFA
Briefly: Assay for inhibitory effects on human SGLT1 activity (uptake of methyl-α-D-glucopyranoside in CS1-5-11D cells). In kind it is cell-based. As to conditions: CHO-K1 cells stably expressing human SGLT1 (CS1-5-11D); 50% inhibition of uptake of 1 mM 14C-labeled/non-labeled methyl-α-D-glucopyranoside, 37° C., 1 hour. The method, then: Test Example 1 Assay for Inhibitory Effects on Human SGLT1 Activity 1) Cloning and Construction of the Vector Expressing Human SGLT1 The cDNA library was prepared for PCR amplification by reverse transcription from total RNA deprived from human small intestine (Ori gene) using oligo-dT as a primer. Using this cDNA library as a template, the DNA fragment coding 1 to 2005 bp of human SGLT1 (ACCESSION: M24847), which was reported by Hediger et al., was amplified by PCR method and inserted into the multi-cloning site of pcDNA3.1 (−) (Invitrogen). The DNA sequence inserted was perfectly matched to the previously reported sequence. 2) Establishment of Cell Line Stably Expressing Human SGLT1 The expression vector of human SGLT1 was digested by Sca I into a linear DNA. The linear DNA was transfected into CHO-K1 cells by means of lipofection (Effectene Transfection Reagent: QIAGEN). Neomycin resistant cell lines were selected by culture in the medium containing G418 (1 mg/mL, LIFE TECHNOLOGIES), and then the activity against the uptake of methyl-α-D-glucopyranoside was measured by the method described below. […] Radio activity was measured by means of micro-scintillation counter TopCount (Packard). One hundred % was set to the difference between the uptake in the control group and the basal uptake, and the uptake of methyl α-D-glucopyranoside at each drug concentration were calculated. […]

Assay [2] deals with T2, human SGLT2 (Homo sapiens, UniProt P31639).
T2 construct: expressed in transfected cells
T2 sequence (P31639 1-672): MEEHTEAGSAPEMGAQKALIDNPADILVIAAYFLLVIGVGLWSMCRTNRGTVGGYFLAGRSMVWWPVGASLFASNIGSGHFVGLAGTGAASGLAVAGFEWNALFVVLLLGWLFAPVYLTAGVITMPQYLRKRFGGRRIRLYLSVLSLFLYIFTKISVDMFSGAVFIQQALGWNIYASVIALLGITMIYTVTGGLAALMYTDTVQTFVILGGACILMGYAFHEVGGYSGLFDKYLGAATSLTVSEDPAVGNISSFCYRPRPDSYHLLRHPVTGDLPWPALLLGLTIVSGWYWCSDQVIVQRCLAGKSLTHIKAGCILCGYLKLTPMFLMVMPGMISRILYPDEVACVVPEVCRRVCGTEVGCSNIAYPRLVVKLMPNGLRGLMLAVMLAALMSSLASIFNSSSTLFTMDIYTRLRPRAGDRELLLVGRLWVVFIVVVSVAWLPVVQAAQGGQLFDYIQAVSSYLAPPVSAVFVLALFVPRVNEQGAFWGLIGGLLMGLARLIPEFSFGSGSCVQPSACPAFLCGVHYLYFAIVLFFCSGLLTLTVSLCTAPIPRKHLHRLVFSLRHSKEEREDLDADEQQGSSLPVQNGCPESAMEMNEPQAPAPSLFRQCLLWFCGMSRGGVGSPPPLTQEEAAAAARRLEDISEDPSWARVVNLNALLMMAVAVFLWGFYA
Description: Assay for inhibitory effects on human SGLT2 activity (uptake of methyl-α-D-glucopyranoside in CS2-5E cells). Type of assay: cell-based. As to conditions: CHO-K1 cells stably expressing human SGLT2 (CS2-5E); 50% inhibition of uptake of 1 mM 14C-labeled/non-labeled methyl-α-D-glucopyranoside, 37° C., 1 hour. The method, then:
Assay for Inhibitory Effects on Human SGLT2 Activity
1) Cloning and Construction of the Vector Expressing Human SGLT2
The cDNA library was prepared for PCR amplification by reverse transcription from total RNA deprived from human kidney (Ori gene) using oligo-dT as a primer. Using this cDNA library as a template, the DNA fragment coding 2 to 2039 bp of human SGLT2 (ACCESSION: M95549, M95299), which was reported by R. G. Wells et al., was amplified by PCR method and inserted into the multi-cloning site of pcDNA3.1 (−) (Invitrogen). The DNA sequence inserted was perfectly matched to the previously reported sequence.
2) Establishment of Cell Line Stably Expressing Human SGLT2
The expression vector of human SGLT2 was digested by Sca I into a linear DNA. The linear DNA was transfected into CHO-K1 cells by means of lipofection (Effectene Transfection Reagent: QIAGEN). Neomycin resistant cell lines were selected by culture in the medium containing G418 (1 mg/mL, LIFE TECHNOLOGIES), and then the activity against the uptake of methyl-α-D-glucopyranoside was measured by the method described below. […] CS2-5E cells were cultured in the presence of G418 at 200 μg/mL. […]
CS2-5E cells were seeded into a 96-well culture plate at a density of 3×10^4 cells/well and cultured for 2 days, and were used in the uptake assay. […] Radio activity was measured by means of micro-scintillation counter TopCount (Packard). […]

The IC50 is the concentration needed to halve the response being measured. In assay [1], `OC[C@H]1O[C@@H](c2ccc3scc(CCc4ccccc4)c3c2)[C@H](O)[C@@H](O)[C@@H]1O` [Example 1, 1-[3-(2-Phenylethyl)benzo[b]thiophen-5-yl]-1-deoxy-β-D-glucopyranose] registered an IC50 of 1500 nM.
In assay [2], `COc1cc2occ(CCc3ccccc3)c2cc1[C@@H]1O[C@H](CO)[C@@H](O)[C@H](O)[C@H]1O` [Example 2, 1-[6-Methoxy-3-(2-phenylethyl)benzo[b]furan-5-yl]-1-deoxy-β-D-glucopyranose] gave an IC50 of 57 nM.
`CCc1ccc(Cc2csc3ccc([C@@H]4O[C@H](CO)[C@@H](O)[C@H](O)[C@H]4O)cc23)cc1` [Example 9] came in with an IC50 in assay [2] of 1.4 nM.

The record behind these values is patent publication US8058245B2, “Fused heterocycle derivative, medicinal composition containing the same, and medicinal use thereof” (Kissei Pharmaceutical Co., Ltd., priority 2004, dated 2011).
